{"source": "patent US20160183527A1", "about": "“FUNGICIDAL COMPOSITIONS” (Dow AgroSciences LLC, priority 2014, published 2016)", "assay_type_in_all_cases": "physicochemical", "key": {"[1]": {"test": "Solubility of Compound A and prothioconazole in benzyl acetate/AMD810 blends at 10° C. (HPLC)", "settings": "both actives saturated", "protocol": "A study of the Compound A and prothioconazole solubility in blends of benzyl acetate/AMD810 was conducted. To each solvent blend both actives were added until each was saturated and the resulting mixtures were then stored at 10° C. until equilibrium was obtained. Aliquots of the supernatant layer were taken from each sample, filtered (0.45 μm mesh) and analyzed by HPLC to determine the solution concentration of each active in the blends."}, "[2]": {"test": "Approximate (relative) solubility of active ingredients in organic solvents at ambient temperature", "settings": "0.2 g of Compound A mixed with 1.38 g of cyclohexanone", "protocol": "The approximate solubility of Compound A was determined by mixing a known mass of the active ingredient with an increasing mass of each solvent at ambient temperature. […] The solubility of Compound A in the solvents used in this screening procedure was generally classified within the following concentration ranges: […]"}, "[3]": {"test": "Accelerated storage stability, 54° C. for 2 weeks (HPLC)", "settings": "2 weeks at 54° C.", "protocol": "Sample 1 was stored at 54° C. for 2 weeks in a closed container.\nSample 6 was stored at 54° C. for 2 weeks in a closed container.\nSample 7 was stored at 54° C. for 2 weeks in a closed container."}}}
{"smiles": "COc1ccnc(C(=O)N[C@H]2COC(=O)[C@H](Cc3ccccc3)[C@@H](OC(=O)C(C)C)[C@H](C)OC2=O)c1OCOC(=O)C(C)C", "note": "[Compound A, propanoic acid, 2-methyl-, [[4-methoxy-2-[[[(3S,7R,8R,9S)-9-methyl-8-(2-methyl-1-oxopropoxy)-2,6-dioxo-7-(phenylmethyl)-1,5-dioxonan-3-yl]amino]carbonyl]-3-pyridinyl]oxy]methyl ester]", "values": [{"measurement": "Compound A Solubility at 10° C.", "setting": "[1]; benzyl acetate 0 wt % in benzyl acetate/AMD810 blend", "value": 3.3, "unit": "% w/w"}, {"measurement": "Compound A Solubility at 10° C.", "setting": "[1]; benzyl acetate 20 wt % in benzyl acetate/AMD810 blend", "value": 4.3, "unit": "% w/w"}, {"measurement": "Compound A Solubility at 10° C.", "setting": "[1]; benzyl acetate 40 wt % in benzyl acetate/AMD810 blend", "value": 6.5, "unit": "% w/w"}, {"measurement": "Compound A Solubility at 10° C.", "setting": "[1]; benzyl acetate 60 wt % in benzyl acetate/AMD810 blend", "value": 11.0, "unit": "% w/w"}, {"measurement": "Compound A Solubility at 10° C.", "setting": "[1]; benzyl acetate 80 wt % in benzyl acetate/AMD810 blend", "value": 12.0, "unit": "% w/w"}, {"measurement": "Compound A content of clear solution in cyclohexanone", "setting": "[2]", "value": 12.6, "unit": "% w/w"}, {"measurement": "Compound A after Storage (% retention)", "setting": "[3]; composition wt %: Compound A 3.4, AMD 810 96.0, third solvent none", "value": "49^ % retention"}, {"measurement": "Compound A after Storage (% retention)", "setting": "[3]; composition wt %: Compound A 4.9, benzyl acetate 94.1, third solvent none", "value": "85^ % retention"}, {"measurement": "Compound A after Storage (% retention)", "setting": "[3]; composition wt %: Compound A 12.0, cyclohexanone 85.7", "value": "96^ % retention"}, {"measurement": "Compound A after Storage (% retention)", "setting": "[3]; wt %: Compound A 4.9, pyraclostrobin 6.3, benzyl acetate 41.2, AMD 810 22.2, cyclohexanone 9.8", "value": "98^ % retention"}, {"measurement": "Compound A after Storage (% retention)", "setting": "[3]; wt %: Compound A 5.0, pyraclostrobin 6.4, benzyl acetate 40.9, AMD 810 22.0, 2-ethyl hexanol 10.0", "value": "95^ % retention"}, {"measurement": "Compound A after Storage (% retention)", "setting": "[3]; wt %: Compound A 7.7, pyraclostrobin 9.8, benzyl acetate 37.1, AMD 810 20.0, cyclohexanone 9.6", "value": "97^ % retention"}, {"measurement": "Compound A after Storage (% retention)", "setting": "[3]; wt %: Compound A 7.8, pyraclostrobin 9.9, benzyl acetate 36.7, AMD 810 19.8, 2-ethyl hexanol 9.7", "value": "97^ % retention"}]}
